Results taken from the NIST ThermoML archive (doi:10.1021/je9008014).

Assay: xn = mol fraction of the nth substance listed
Settings: 101 kPa, Liquid; for mass density: Pycnometric method

CCOCCOCCOCCO [2-(2-(2-ethoxyethoxy)ethoxy)ethanol] + O
Settings	mass density [kg/m3]	viscosity [mPa·s]
293.15 K, x1 = 0.01119	1006.9	1.484
293.15 K, x1 = 0.02492	1016.6	2.221
293.15 K, x1 = 0.04128	1026.2	3.256
293.15 K, x1 = 0.06284	1035.1	4.832
293.15 K, x1 = 0.09179	1040.8	6.993
293.15 K, x1 = 0.1317	1042.7	9.102
293.15 K, x1 = 0.1905	1042.2	10.54
293.15 K, x1 = 0.2885	1038.7	11.29
293.15 K, x1 = 0.4019	1033.6	11.34
293.15 K, x1 = 0.4747	1031.1	10.93
293.15 K, x1 = 0.6076	1027.3	10.06
293.15 K, x1 = 0.7399	1024.4	9.168
293.15 K, x1 = 0.8176	1022.9	8.738
293.15 K, x1 = 0.8956	1021.8	8.353
293.15 K, x1 = 1	1020.6	7.796
298.15 K, x1 = 1	1016.3	6.739
303.15 K, x1 = 0.01119	1003.7	1.129
303.15 K, x1 = 0.02492	1012.6	1.595
303.15 K, x1 = 0.04128	1020.7	2.344
303.15 K, x1 = 0.06284	1028.7	3.349
303.15 K, x1 = 0.09179	1032.8	4.589
303.15 K, x1 = 0.1317	1034.9	5.955
303.15 K, x1 = 0.1905	1033.9	7.032
303.15 K, x1 = 0.2885	1029.8	7.522
303.15 K, x1 = 0.4019	1024.9	7.547
303.15 K, x1 = 0.4747	1022.3	7.378
303.15 K, x1 = 0.6076	1018.5	6.868
303.15 K, x1 = 0.7399	1015.5	6.386
303.15 K, x1 = 0.8176	1014.1	6.178
303.15 K, x1 = 0.8956	1013.1	5.884
303.15 K, x1 = 1	1011.9	5.657
308.15 K, x1 = 1	1008.1	–
313.15 K, x1 = 0.01119	999.7	0.9341
313.15 K, x1 = 0.02492	1007.5	1.261
313.15 K, x1 = 0.04128	1014.8	1.747
313.15 K, x1 = 0.06284	1021.8	2.429
313.15 K, x1 = 0.09179	1025.3	3.265
313.15 K, x1 = 0.1317	1026.5	4.072
313.15 K, x1 = 0.1905	1025.5	4.899
313.15 K, x1 = 0.2885	1021.4	5.382
313.15 K, x1 = 0.4019	1016.5	5.391
313.15 K, x1 = 0.4747	1013.9	5.226
313.15 K, x1 = 0.6076	1010.2	4.953
313.15 K, x1 = 0.7399	1007.4	4.586
313.15 K, x1 = 0.8176	1006.1	4.457
313.15 K, x1 = 0.8956	1005.1	4.315
313.15 K, x1 = 1	1003.9	4.185
323.15 K, x1 = 0.01119	995.1	0.7411
323.15 K, x1 = 0.02492	1002.1	1.013
323.15 K, x1 = 0.04128	1008.7	1.369
323.15 K, x1 = 0.06284	1014.4	1.859
323.15 K, x1 = 0.09179	1017.4	2.436
323.15 K, x1 = 0.1317	1018.1	3.015
323.15 K, x1 = 0.1905	1016.8	3.558
323.15 K, x1 = 0.2885	1012.7	3.942
323.15 K, x1 = 0.4019	1007.7	3.965
323.15 K, x1 = 0.4747	1005.2	3.885
323.15 K, x1 = 0.6076	1001.6	3.735
323.15 K, x1 = 0.7399	998.8	3.552
323.15 K, x1 = 0.8176	997.6	3.509
323.15 K, x1 = 0.8956	996.6	3.437
323.15 K, x1 = 1	995.5	3.326
333.15 K, x1 = 0.01119	989.6	0.6117
333.15 K, x1 = 0.02492	995.7	0.8193
333.15 K, x1 = 0.04128	1001.9	1.092
333.15 K, x1 = 0.06284	1006.2	1.433
333.15 K, x1 = 0.09179	1008.5	1.853
333.15 K, x1 = 0.1317	1008.7	2.252
333.15 K, x1 = 0.1905	1007.3	2.652
333.15 K, x1 = 0.2885	1003.1	2.923
333.15 K, x1 = 0.4019	998.5	3.006
333.15 K, x1 = 0.4747	996.1	2.953
333.15 K, x1 = 0.6076	992.5	2.879
333.15 K, x1 = 0.7399	989.8	2.774
333.15 K, x1 = 0.8176	988.6	2.728
333.15 K, x1 = 0.8956	987.7	2.697
333.15 K, x1 = 1	986.7	2.627
